Results reported in patent US7541463B2, “Sulfur-containing naphthalimide derivatives” (East China University of Science and Technology, priority 2003, dated 2009).

Key:
[1] = Body weight and deaths of S-180 bearing mice; format: in vivo
S-180 sarcoma [2] = test: In vivo tumor growth inhibition, S-180 sarcoma in mice; settings: for activity against mice S180 sarcoma (in words): i.p. injection
Method: S-180 sarcoma developed for 7-11 days and in good growth trend was homogenated into cell suspension. The cell suspension was inoculated subcutaneously into right armpit of female KM mice (18˜22 g) (about 1.0−2.5×10^6 cells/mouse). After 24 h, the mice were grouped in random with compounds administrated by i.p. injection. From the next day on, the mice were given serial dosages. After treatment, animals were killed, and solid tumors were removed and weighed after the body weight were weighed. The inhibition rate was calculated as follows, and T-test was carried out: [(Average tumor weight of NS group−Average tumor weight of test group)/Average tumor weight of NS group]×100%.

DNA = DNA double strand break (further studies)
tumor cell cycle = test: Tumor cell cycle arrest (further studies); format: cell-based; settings: significantly dose-dependent
H22 hepatoma = test: In vivo tumor inhibition, H22 hepatoma
S-180 sarcoma [3] = test: In vivo tumor growth inhibition, S-180 sarcoma in mice
tumor cell = test: Tumor cell apoptosis (further studies); format: cell-based
mice leukemia cell P388 = test: Growth inhibition of P388 cells, MTT assay; format: cell-based; settings: Mus musculus, read-out: Growth inhibition effect to P388 cell strain
Method: (§1) The cell growth inhibition of mice leukemia cell P388 was evaluated by MTT (microculture tetrozolium) assay, while the cell growth inhibition of human lung adenocarcinoma cell A-549 was evaluated by SRB (Sulforhodamine B) protein staining assay.
The procedure of MTT assay was as follows: appropriate amount of cells in log phase were seeded in 96-well plates (6000 cells/well, 15000 cells/well, 90ul/well) according to the growing rate. After cultured for 24 h, cells were exposed to serial dilutions of drugs in triplicate (10 ul/well). In addition, wells without cell, and wells without cell but with serial dilutions of drugs in case of using a colored-drug were set for zeroing. Then, the cells were cultured in 5% CO2 humidified incubator at 37° C. for 48 h. After treatment of drugs for 48 h, 20ul MTT (Sigma) which was diluted by normal saline to the concentration of 5 mg/ml was added to each well, 50ul/well 10%SDS-5% isobutanol-0.01% mol/LHCl was added after 4 h. After cultured overnight, absorbance was measured at 570 nm using a multiwell spectrophotometer. The inhibition effect of the compounds in test (percentage of growth inhibition) was calculated for each well: % inhibition=(OD570control cells−OD570treated cells)/OD570control cells×100%.
(§2) The cell lines used were mice leukemia cell P388, human leukemia cell MOLT-4, human lung adenocarcinoma cell A-549, human gastric adenocarcinoma SGC-7901, human hepatocellular carcinoma BEL-7402 and human embryonal fibroblast WI-38 (commerially available from ATCC).
(§3) The exposure time to compounds was 48 h-72 h.

[4] = test system: human lung adenocarcinoma cell A-549; test: Growth inhibition of A-549 cells, SRB protein staining assay; format: cell-based; settings: read-out: Growth inhibition effect to A-549 cell strain
Method: as §1
The procedure of SRB assay was as follows: appropriate amount of cells in log phase were seeded in 96-well plates according to the growing rate (90 ul/well). After cultured for 24 h, cells were exposed to serial dilutions of drugs in triplicate (10 ul/well). In addition, control wells of normal saline in corresponding concentrations and zeroing wells without cell were set. The cells were incubated in 5% CO2 humidified incubator at 37° C. After 72 h, the medium was removed and cells were fixed with cold 10% trichloric acid (TCA) at 4° C. for 1 h. The plates were washed with distilled water 5 times, and stained in room temperature with 4 mg/ml SRB (Sigma, diluted with 1% glacial acetic acid, 100 ul/well) for 15 minutes after air drying. SRB was then washed with 1% acetic acid 5 times. Plates were dried, followed by adding 150 ul/well Tris solution. Absorbance was measured at […] using a multiwell spectrophotometer. The inhibition effect of the compounds in test (percentage of growth inhibition) was calculated for each well: % inhibition=(A540control cells−A540treated cells)/A540control cells×100%.
as §2, §3

CN(C)CCN1C(=O)c2cccc3cc(N)cc(c23)C1=O [Amonafide, N-(β-dimethylaminoethyl)-3-amino-1,8-naphthalimide, reference compound]
Weight of mice (g) Day 7 ([1]; 5 mg/kg i.p): 32.0 g
Weight of mice (g) Day 7 ([1]; 10 mg/kg i.p): 31.3 g
Weight of tumor (g) mean ± SD (S-180 sarcoma [2]; S-180 sarcoma, 5 mg/kg i.p): 1.12 ± 0.35 g
activity against mice S180 sarcoma (in words) (S-180 sarcoma [2]): not potent
DNA double strand break (DNA): induce the broken of DNA double strand
tumor cell cycle arrest (tumor cell cycle): arrest tumor cell cycle in G2/M phase
activity in parallel experiments (in words) (H22 hepatoma; compared with C16): not as active
Tumor growth inhibition % (S-180 sarcoma [3]; 5 mg/kg i.p): 30.9%
Tumor growth inhibition % (S-180 sarcoma [3]; 10 mg/kg i.p): 15.4%
Weight of tumor (g) mean ± SD (S-180 sarcoma [3]; 10 mg/kg i.p): 1.37 ± 0.26 g
tumor cell apoptosis (tumor cell): trigger tumor cell apoptosis

CN(C)CCN1C(=O)c2cccc3c2c(cc2c4ccccc4sc32)C1=O [compound 16, N-(N′,N′-dimethylaminoethyl)benzo[b]thieno[2,1-c]naphthalimide]
Weight of mice (g) Day 7 ([1]; 12.5 mg/kg i.p): 26.9 g
Weight of mice (g) Day 7 ([1]; 25 mg/kg i.p): 18.6 g
Weight of mice (g) Day 7 ([1]; 50 mg/kg i.p): 12.9 g
inhibition at 100 µM (mice leukemia cell P388; 10^−4 M): 100%
inhibition at 10 µM (mice leukemia cell P388; 10^−5 M): 95.9%
inhibition at 1 µM (mice leukemia cell P388; 10^−6 M): 68.2%
inhibition at 0.1 µM (mice leukemia cell P388; 10^−7 M): 21.4%
inhibition at 0.01 µM (mice leukemia cell P388; 10^−8 M): 13.8%
Weight of tumor (g) mean ± SD (S-180 sarcoma [2]; S-180 sarcoma, 12.5 mg/kg i.p): 1.14 ± 0.29 g
Tumor growth inhibition % (S-180 sarcoma [2]; S-180 sarcoma, 25 mg/kg i.p): 71.6%
Weight of tumor (g) mean ± SD (S-180 sarcoma [2]; S-180 sarcoma, 25 mg/kg i.p): 0.46 ± 0.24 g
activity against mice S180 sarcoma (in words) (S-180 sarcoma [2]): active
DNA double strand break (DNA): induce the broken of DNA double strand
inhibition at 100 µM ([4]; A549, 10^−4 M): 97.1%
inhibition at 10 µM ([4]; A549, 10^−5 M): 96.6%
inhibition at 1 µM ([4]; A549, 10^−6 M): 85.2%
inhibition at 0.1 µM ([4]; A549, 10^−7 M): 72.2%
inhibition at 0.01 µM ([4]; A549, 10^−8 M): 55.3%
tumor cell cycle arrest (tumor cell cycle): arrest tumor cell cycle in G2/M phase
tumor inhibition (in words) (H22 hepatoma; 7.5 mg/kg): not active
tumor inhibition rate (H22 hepatoma; i.p. 15 mg/kg): 51.0%
tumor inhibition rate (H22 hepatoma; i.p. 30 mg/kg): 72.6%
Tumor growth inhibition % (S-180 sarcoma [3]; 12.5 mg/kg i.p): 29.6%
Tumor growth inhibition % (S-180 sarcoma [3]; 50 mg/kg i.p): 95.6%
Weight of tumor (g) mean ± SD (S-180 sarcoma [3]; 50 mg/kg i.p): 0.08 ± 0.04 g
tumor cell apoptosis (tumor cell): trigger tumor cell apoptosis
